The term IC50 denotes the concentration that gives 50% inhibition. Lower therefore signals greater potency.

The structures appear in SMILES notation. Counter-ions that a name gives are not always drawn.

Among the data in patent US6022307A, “Substituted dibenzothiophenes having antiangiogenic activity” (American Cyanamid Company, priority 1999, dated 2000) are IC50 values, retold here.

The test relates to KDR.
Protocol: Inhibition of Binding of VEGF 165 to KDR & Flt-1 Receptors as Measured by SPA Assay
Preparation of conditioned media containing the KDR-Fc soluble VEGF receptor.:
Human 293KDR2 cells, which secrete a soluble KDR-Fc fusion protein, were grown in Dulbecco's Modified Eagle Medium supplemented with 10% fetal calf serum, 2 mM glutamine, 10 units/ml penicillin G sulfate, 10 μg/ml streptomycin sulfate and 175 μg/ml geneticin (G418) sulfate. Cells were plated at a density of 10^6 cells/100 mm dish and incubated at 37° C. in a humidified atmosphere containing 95% air and 5% CO2. After 10 days, conditioned medium was collected and centrifuged at 15,000 rpm for 15 min to remove dead cells. A total of 0.1 volume of 1.15% gelatin and 0.02 volume of 1M HEPES buffer (pH 8) was added. Leupeptin and pepstatin A were added to 1 μg/ml each.
Preparation of ^125 I-labelled VEGF ligand:
Recombinant human ^125 T-labelled VEGF 165 was purchased from Amersham (3,800 cpm/fmol). ^125,-labelled VEGF was diluted in DMEM supplemented with gelatin (0.15%) and HEPES buffer (20 mM) to a final concentration of 40,000 cpm/25 μl.
Preparation of SPA beads:
SPA PVT antibody-binding beads were purchased from Amersham. Each bottle of SPA beads (500 mg) was reconstituted in 25 ml of DMEM supplemented with gelatin (0.15%) and HEPES buffer (20 mM). The bottle contents were well mixed (15 min with a stir bar at room temperature).
SPA assays were performed in flat-bottom polystyrene 96 well microtitre plates.
(a) Pipette 50 μl of SPA beads to well.
(b) Pipette 25 μl of conditioned medium to well.
(d) Pipette 25 μl of ^125 J-VEGF 165 to well.
The appropriate control wells were set up to measure non-specific binding, solvent effect, etc. The assays were run in duplicate or triplicate wells. Plates were sealed and incubate at room temperature without shaking for 5 to 20 hours. Plates were then counted in a Packard TopCount microtitre plate liquid scintillation counter.
A typical assay gave 3,000 to 6,000 cpm bound. Background binding (measured in the presence of 100-fold molar excess of unlabelled VEGF 165) was typically 200 to 300 cpm bound. Compounds were tested at 30, 10, 3, 1, 0.3 and 0.1 μg/ml in DMSO. […] Half maximal binding was determined by the following equation:
s=maximal cpm bound in the absence of compound.
The IC50 values were determined graphically by the following procedure:
A graph was drawn plotting compound concentration (x-axis) versus cpm bound (y-axis).
The half maximal binding was calculated using the equation above.
A horizontal line (LINE A) was drawn which intersects the y-axis at the half maximal binding value.
A vertical line (LINE B) was drawn through the point where LINE A intersects the inhibition curve.
The point where LINE B intersects the x-axis was extrapolated from the graph to give the IC50 value.
The molecule `O=C(/C=C/c1ccc([N+](=O)[O-])cc1)Nc1cc2c(cc1S(=O)(=O)O)-c1cc(S(=O)(=O)O)c(NC(=O)/C=C/c3ccc([N+](=O)[O-])cc3)cc1S2(=O)=O` [Example 25, 3,7-Bis-[3-(4-nitrophenyl)-acryloylamino]-5,5-dioxo-5H-5^6-dibenzothiophene-2,8-disulfonic acid, disodium salt] had an IC50 of 1 µg/mL.

`O=C(Nc1cc2c(cc1S(=O)(=O)O)-c1cc(S(=O)(=O)O)c(NC(=O)c3ccc(S(=O)(=O)c4ccccc4)cc3)cc1S2(=O)=O)c1ccc(S(=O)(=O)c2ccccc2)cc1` [Example 52, 5,5-Dioxo-3,7-bis-(4-phenyl-sulfonylbenzoyl-amino)-5H-5^6-dibenzothiophene-2,8-disulfonic acid, disodium salt] showed a half-maximal inhibitory concentration (IC50) of 7 µg/mL.

Molecule `COc1cc(/C=C/C(=O)Nc2cc3sc4cc(NC(=O)/C=C/c5cc(Br)c(O)c(OC)c5)c(C(=O)O)cc4c3cc2C(=O)O)cc(Br)c1O` [Example 10, 3,7-Bis-[3-(3-bromo-4-hydroxy-5-methoxy-phenyl)acryloylamino]-dibenzothiophene-2,8-dicarboxylic Acid, disodium] registered a half-maximal inhibitory concentration (IC50) of 0.9 µg/mL. This IC50 lies about 7.8-fold lower than the previous one.

`CCOP(=O)(O)c1cc2c(cc1NC(=O)c1ccc3c(c1)C(=O)c1ccccc1C3=O)S(=O)(=O)c1cc(NC(=O)c3ccc4c(c3)C(=O)c3ccccc3C4=O)c(P(=O)(O)OCC)cc1-2` [Example 21, [3,7-Bis-[9,10-dioxo-9,10-dihydroanthracene-2-carbonyl)amino]-8-(ethoxyhydroxy-phosphoryl)-5,5-dioxo-5H-5^6-dibenzothiophen-2-yl]phosphonic acid monoethyl ester, disodium salt]: the 50% inhibitory concentration (IC50) was found to be 0.2 µg/mL. This IC50 lies about 4.5-fold lower than the previous one.

The molecule `O=C(Nc1cc2sc3cc(NC(=O)c4cc5sccc5s4)c(C(=O)O)cc3c2cc1C(=O)O)c1cc2sccc2s1` [Example 5, 3,7-Bis[(thieno[3,2-b]thien-2-ylcarbonyl)amino]dibenzothiophene-2,8-dicarboxylic acid, disodium salt] displayed an IC50 of 0.7 µg/mL.

On to `O=C(Nc1cc2c(cc1S(=O)(=O)O)-c1cc(S(=O)(=O)O)c(NC(=O)c3ccc4ccccc4c3)cc1S2(=O)=O)c1ccc2ccccc2c1` [Example 57, 3,7-Bis-[(naphthalen-2-yl)carbonylamino]-5,5-dioxo-5H-5^6-dibenzothiophene-2,8-disulfonic acid, disodium salt], for which the IC50 is 5 µg/mL.

With `COc1cc(NC(C)=O)ccc1C(=O)Nc1cc2c(cc1S(=O)(=O)O)-c1cc(S(=O)(=O)O)c(NC(=O)c3ccc(NC(C)=O)cc3OC)cc1S2(=O)=O` [Example 59, 3,7-Bis-[(4-acetylamino-2-methoxy-phenyl)carbonylamino]-5,5-dioxo-5H-5^6-dibenzothiophene-2,8-disulfonic acid, disodium salt], the concentration for half-maximal inhibition (IC50) is 6 µg/mL.

As to `N#Cc1ccc(/C=C/C(=O)Nc2cc3c(cc2S(=O)(=O)O)-c2cc(S(=O)(=O)O)c(NC(=O)/C=C/c4ccc(C#N)cc4)cc2S3(=O)=O)cc1` [Example 32, 3,7-Bis-[3-(4-cyanophenyl)-acryloylamino]-5,5-dioxo-5H-5^6-dibenzothiophene-2,8-disulfonic acid, disodium salt], inhibition was half-maximal at 0.8 µg/mL (IC50).

As for `COc1ccc(C(=O)Nc2ccc(C(=O)Nc3cc4c(cc3S(=O)(=O)O)-c3cc(S(=O)(=O)O)c(NC(=O)c5ccc(NC(=O)c6ccc(OC)cc6OC)cc5OC)cc3S4(=O)=O)c(OC)c2)c(OC)c1` [Example 58, 3,7-Bis-({4-[(2,4-dimethoxy-phenyl)carbonyl-amino]-2-methoxy-phenyl}carbonyl-amino)-5,5-dioxo-5H-5^6-dibenzothiophene-2,8-disulfonic acid, disodium salt], the IC50 amounted to 1.5 µg/mL.

Molecule `O=C(Nc1cc2c(cc1S(=O)(=O)O)-c1cc(S(=O)(=O)O)c(NC(=O)c3cc4ccccc4s3)cc1S2(=O)=O)c1cc2ccccc2s1` [Example 40, 3,7-Bis-[(benzo[b]thiophene-2-carbonyl)amino]-5,5-dioxo-5H-5^ -dibenzothiophene-2,8-disulfonic acid, disodium] returned a half-inhibitory concentration (IC50) of 4 µg/mL.

Molecule `COc1ccc(C(=O)Nc2cc3c(cc2S(=O)(=O)O)-c2cc(S(=O)(=O)O)c(NC(=O)c4ccc(OC)cc4)cc2S3(=O)=O)cc1` [Example 50, 3,7-Bis-(4-methoxybenzoyl-amino)-5,5-dioxo-5H-5^6-dibenzothiophene-2,8-disulfonic acid, disodium salt] showed an IC50 of 5 µg/mL.

Consider `COc1ccc(C=CC(=O)Nc2cc3sc4cc(NC(=O)C=Cc5ccc(OC)c(OC)c5Cl)c(C(=O)[O-])cc4c3cc2C(=O)[O-])c(Cl)c1OC.[Na+].[Na+]` [disodium salt], for which half-maximal inhibition (IC50) was put at 3 µg/mL.

In turn, `O=C(Nc1cc2sc3cc(NC(=O)c4ccc5cc6ccccc6cc5c4)c(C(=O)O)cc3c2cc1C(=O)O)c1ccc2cc3ccccc3cc2c1` [Example 3, 3,7-Bis[(2-anthracenylcarbonyl)amino]-2,8-dibenzothiophene-2,8-dicarboxylic acid, disodium salt] gave an IC50 of 3.4 µg/mL.

`O=C(Nc1cc2sc3cc(Cl)c(C(=O)O)cc3c2cc1C(=O)O)c1ccc2cc3ccccc3cc2c1` [Example 15, 3-[(2-Anthracenylcarbonyl)amino]-7-chlorodibenzothiophene-2,8-dicarboxylic acid, disodium salt] registered a half-maximal inhibitory concentration (IC50) of 1.6 µg/mL.

In turn, `C=C(C(=O)Nc1cc2sc3cc(Cl)c(C(=O)O)cc3c2cc1C(=O)O)c1ccc(OC)c(OC)c1Cl` [Example 14, 3-Chloro-7-[2-(2-chloro-3,4-dimethoxyphenyl)acryloylamino]dibenzothiophene-2,8-dicarboxylic acid, disodium salt] had an IC50 of 3 µg/mL.

In turn, `Cc1nn(C)c2sc(C(=O)Nc3cc4c(cc3S(=O)(=O)O)-c3cc(S(=O)(=O)O)c(NC(=O)c5cc6c(C)nn(C)c6s5)cc3S4(=O)=O)cc12` [Example 44, 3,7-Bis-[(1,3-di-methyl-1H-thieno[2,3-c]pyrazole-5-carbonyl)amino]-5,5-dioxo-5H-5^6-dibenzothiophene-2,8-disulfonic acid, disodium salt] registered an IC50 of 1.5 µg/mL.

As to `COc1ccccc1/C=C/C(=O)Nc1cc2c(cc1S(=O)(=O)O)-c1cc(S(=O)(=O)O)c(NC(=O)/C=C/c3ccccc3OC)cc1S2(=O)=O` [Example 34, 3,7-Bis-[3-(2-methoxyphenyl)-acryloylamino]-5,5-dioxo-5H-5^6-dibenzothiophene-2,8-disulfonic acid, disodium salt], the IC50 turned out to be 2.5 µg/mL.

`CCOP(=O)(O)c1cc2c(cc1NC(=O)c1ccc3cc4ccccc4cc3c1)S(=O)(=O)c1cc(NC(=O)c3ccc4cc5ccccc5cc4c3)c(P(=O)(O)OCC)cc1-2` [Example 22, [3,7-Bis-[(anthracene-2-carbonyl)amino]-8-(ethoxyhydroxy-phosphoryl)-5,5-dioxo-5H-5^6-dibenzothiophen-2-yl]-phosphonic acid mono-ethyl ester, disodium salt]: the IC50 came out at 0.06 µg/mL. This IC50 lies about 42-fold lower than the previous one.

`O=C(/C=C/c1ccc(Br)cc1)Nc1cc2c(cc1S(=O)(=O)O)-c1cc(S(=O)(=O)O)c(NC(=O)/C=C/c3ccc(Br)cc3)cc1S2(=O)=O` [Example 33, 3,7-Bis-[3-(4-bromophenyl)-acryloylamino]-5,5-dioxo-5H-5^6-dibenzothiophene-2,8-disulfonic acid, disodium salt] gave a half-maximal inhibitory concentration (IC50) of 0.5 µg/mL.

As for `CCOP(=O)(O)c1cc2c(cc1NC(=O)c1cc3ccccc3s1)S(=O)(=O)c1cc(NC(=O)c3cc4ccccc4s3)c(P(=O)(OCC)OCC)cc1-2` [Example 23b, [3,7-Bis[(benzo[b]thiophene-2-carbonyl)amino-8-(diethoxyphosphoryl)-5,5-dioxo-5H-5λ^6-dibenzothiophen-2-yl]phosphonic acid monoethyl ester, monosodium salt], inhibition was half-maximal at 0.58 µg/mL (IC50).

`O=C(Nc1ccc(C(=O)Nc2cc3c(cc2S(=O)(=O)O)-c2cc(S(=O)(=O)O)c(NC(=O)c4ccc(NC(=O)c5ccccc5)cc4)cc2S3(=O)=O)cc1)c1ccccc1` [Example 60, 3,7-Bis-(4-benzoylaminobenzoylamino)-5,5-dioxo-5H-5^6-dibenzothiophene-2,8-disulfonic acid, disodium salt] came in with an IC50 of 0.5 µg/mL.

As for `O=C(/C=C/c1cccc2ccccc12)Nc1cc2c(cc1S(=O)(=O)O)-c1cc(S(=O)(=O)O)c(NC(=O)/C=C/c3cccc4ccccc34)cc1S2(=O)=O` [Example 26, 3,7-Bis-(3-naphthalen-1-yl-acryloylamino)-5,5-dioxo-5H-5^6-dibenzothiophene-2,8-disulfonic acid, disodium salt], the IC50 came out at 1.5 µg/mL. This IC50 is about 3-fold higher than that of the molecule before.

With `CC(C)c1ccc(/C=C/C(=O)Nc2cc3c(cc2S(=O)(=O)O)-c2cc(S(=O)(=O)O)c(NC(=O)/C=C/c4ccc(C(C)C)cc4)cc2S3(=O)=O)cc1` [Example 36, 3,7-Bis-[3-(4-isopropylphenyl)-acryloylamino]-5,5-dioxo-5H-5^ -dibenzothiophene-2,8-disulfonic acid, disodium], half-maximal inhibition (IC50) required 6 µg/mL. This IC50 is about 4-fold higher than that of the molecule before.

`O=C(Nc1cc2c(cc1S(=O)(=O)O)-c1cc(S(=O)(=O)O)c(NC(=O)c3cc4sccc4s3)cc1S2(=O)=O)c1cc2sccc2s1` [Example 43, 5,5-Dioxo-3,7-bis-[(thieno[3,2-b]thiophene-2-carbonyl)-amino]-5H-5^6-dibenzothiophene-2,8-disulfonic acid, disodium]: half-maximal inhibition (IC50) required 0.6 µg/mL.

Regarding `COc1ccc(C(=O)Nc2cc3c(cc2S(=O)(=O)O)-c2cc(S(=O)(=O)O)c(NC(=O)c4ccc(OC)cc4OC)cc2S3(=O)=O)c(OC)c1` [Example 51, 3,7-Bis-(2,4-dimethoxybenzoyl-amino)-5,5-dioxo-5H-5^6-dibenzothiophene-2,8-disulfonic acid disodium salt], the IC50 is 5 µg/mL.

As for `Cc1ccc(C)c(/C=C/C(=O)Nc2cc3c(cc2S(=O)(=O)O)-c2cc(S(=O)(=O)O)c(NC(=O)/C=C/c4cc(C)ccc4C)cc2S3(=O)=O)c1` [Example 35, 3,7-Bis-[3-(2,5-dimethylphenyl)-acryloylamino]-5,5-dioxo-5H-5^6-dibenzothiophene-2,8-disulfonic acid, disodium], inhibition was half-maximal at 2.5 µg/mL (IC50).

As to `CCOP(=O)(O)c1cc2c(cc1NC(=O)/C=C/c1ccc(OC)c(OC)c1Cl)S(=O)(=O)c1cc(NC(=O)/C=C/c3ccc(OC)c(OC)c3Cl)c(P(=O)(O)OCC)cc1-2` [Example 19, [3,7-Bis-[3-(2-chloro-3,4-dimethoxyphenyl)acryloylamino]-8-(ethoxyhydroxyphosphoryl)-5 .5-dioxo-5H-5λ^6-dibenzothiophen-2-yl]phosphonic acid monoethyl ester, disodium salt], the IC50 was 0.55 µg/mL.
